Patent US5672715A, “Herbicidal substituted 3-aryl-pyrazoles” (Monsanto Company, priority 1995, dated 1997)

Experiments:
Format in all cases: in vivo
Barnyardgrass [1] = experiment: pre-emergence herbicide test; conditions: Echinochloa crus-galli, pre-emergence, 0.25 lb/A; read-out: % plant inhibition
How it was run: (§1)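 Steps: compact topsoil in pan; place seeds; level-fill with cover soil; add a known amount of compound before or after covering; keep pans in greenhouse, bottom-watering as needed; rate % inhibition at about 14 days.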

Bedstraw Catchweed [2] = experiment: pre-emergence herbicide test; conditions: Galium aparine, pre-emergence, 0.25 lb/A; read-out: % plant inhibition
How it was run: as §1

Birdseye Speedwell [3] = experiment: pre-emergence herbicide test; conditions: pre-emergence, 0.25 lb/A; read-out: % plant inhibition
How it was run: as §1

Blackgrass [4] = experiment: pre-emergence herbicide test; conditions: Alopecurus myosuroides, pre-emergence, 0.25 lb/A; read-out: % plant inhibition
How it was run: as §1

Cocklebur [5] = experiment: pre-emergence herbicide test; conditions: Xanthium strumarium, pre-emergence, 0.25 lb/A; read-out: % plant inhibition
How it was run: as §1

Common Chickweed [6] = experiment: pre-emergence herbicide test; conditions: pre-emergence, 0.25 lb/A; read-out: % plant inhibition
How it was run: as §1

Corn [7] = experiment: pre-emergence herbicide test; conditions: Zea mays, pre-emergence, 0.25 lb/A; read-out: % plant inhibition
How it was run: as §1

Downy Brome [8] = experiment: pre-emergence herbicide test; conditions: Bromus tectorum, pre-emergence, 0.25 lb/A; read-out: % plant inhibition
How it was run: as §1

Giant Foxtail [9] = experiment: pre-emergence herbicide test; conditions: Setaria faberi, pre-emergence, 0.25 lb/A; read-out: % plant inhibition
How it was run: as §1

Green Foxtail [10] = experiment: pre-emergence herbicide test; conditions: Setaria viridis, pre-emergence; 0.25 lb/A; read-out: % plant inhibition
How it was run: as §1

Morning Glory [11] = experiment: pre-emergence herbicide test; conditions: Ipomoea, pre-emergence, 0.25 lb/A; read-out: % plant inhibition
How it was run: as §1

Rape [12] = experiment: pre-emergence herbicide test; conditions: pre-emergence, 0.25 lb/A; read-out: % plant inhibition
How it was run: as §1

Seedling Johnsongrass [13] = experiment: pre-emergence herbicide test; conditions: Sorghum halepense, pre-emergence, 0.25 lb/A; read-out: % plant inhibition
How it was run: as §1

Soybean [14] = experiment: pre-emergence herbicide test; conditions: Glycine max, pre-emergence, 0.25 lb/A; read-out: % plant inhibition
How it was run: as §1

Velvetleaf [15] = experiment: pre-emergence herbicide test; conditions: Abutilon theophrasti, pre-emergence, 0.25 lb/A; read-out: % plant inhibition
How it was run: as §1

Wheat [16] = experiment: pre-emergence herbicide test; conditions: Triticum aestivum, pre-emergence, 0.25 lb/A; read-out: % plant inhibition
How it was run: as §1

Wild Oats [17] = experiment: pre-emergence herbicide test; conditions: Avena fatua, pre-emergence, 0.25 lb/A; read-out: % plant inhibition
How it was run: as §1

Barnyardgrass [18] = experiment: post-emergence herbicide test; conditions: Echinochloa crus-galli, post-emergence, 0.25 lb/A; read-out: % plant inhibition
How it was run: (§2)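 Seeds sown on compacted topsoil, covered, leveled; greenhouse, overhead or subirrigation. Plants 2–3 wk old → atomizer spray, 170.3 kPa, 1870 L/Ha, ~0.4% v/v emulsifier. Readout: % inhibition.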

Bedstraw Catchweed [19] = experiment: post-emergence herbicide test; conditions: Galium aparine, post-emergence, 0.25 lb/A; read-out: % plant inhibition
How it was run: as §2

Birdseye Speedwell [20] = experiment: post-emergence herbicide test; conditions: post-emergence, 0.25 lb/A; read-out: % plant inhibition
How it was run: as §2

Blackgrass [21] = experiment: post-emergence herbicide test; conditions: Alopecurus myosuroides, post-emergence, 0.25 lb/A; read-out: % plant inhibition
How it was run: as §2

Cocklebur [22] = experiment: post-emergence herbicide test; conditions: Xanthium strumarium, post-emergence, 0.25 lb/A; read-out: % plant inhibition
How it was run: as §2

Common Chickweed [23] = experiment: post-emergence herbicide test; conditions: post-emergence, 0.25 lb/A; read-out: % plant inhibition
How it was run: as §2

Corn [24] = experiment: post-emergence herbicide test; conditions: Zea mays, post-emergence, 0.25 lb/A; read-out: % plant inhibition
How it was run: as §2

Downy Brome [25] = experiment: post-emergence herbicide test; conditions: Bromus tectorum, post-emergence, 0.25 lb/A; read-out: % plant inhibition
How it was run: as §2

Giant Foxtail [26] = experiment: post-emergence herbicide test; conditions: Setaria faberi, post-emergence, 0.25 lb/A; read-out: % plant inhibition
How it was run: as §2

Green Foxtail [27] = experiment: post-emergence herbicide test; conditions: Setaria viridis, post-emergence, 0.25 lb/A; read-out: % plant inhibition
How it was run: as §2

Morning Glory [28] = experiment: post-emergence herbicide test; conditions: Ipomoea, post-emergence, 0.25 lb/A; read-out: % plant inhibition
How it was run: as §2

Rape [29] = experiment: post-emergence herbicide test; conditions: post-emergence, 0.25 lb/A; read-out: % plant inhibition
How it was run: as §2

Seedling Johnsongrass [30] = experiment: post-emergence herbicide test; conditions: Sorghum halepense, post-emergence, 0.25 lb/A; read-out: % plant inhibition
How it was run: as §2

Soybean [31] = experiment: post-emergence herbicide test; conditions: Glycine max, post-emergence, 0.25 lb/A; read-out: % plant inhibition
How it was run: as §2

Velvetleaf [32] = experiment: post-emergence herbicide test; conditions: Abutilon theophrasti, post-emergence, 0.25 lb/A; read-out: % plant inhibition
How it was run: as §2

Wheat [33] = experiment: post-emergence herbicide test; conditions: Triticum aestivum, post-emergence, 0.25 lb/A; read-out: % plant inhibition
How it was run: as §2

Wild Oats [34] = experiment: post-emergence herbicide test; conditions: Avena fatua, post-emergence, 0.25 lb/A; read-out: % plant inhibition
How it was run: as §2

Cc1c(-c2cc(C(=O)OC3CCOC3)c(Cl)cc2F)nn(C)c1C(F)(F)F (stereo not drawn) [Compound 25]
inhibition at 280.212 g/ha (Barnyardgrass [1]): 95%
inhibition at 280.212 g/ha (Bedstraw Catchweed [2]): 85%
inhibition at 280.212 g/ha (Birdseye Speedwell [3]): 100%
inhibition at 280.212 g/ha (Blackgrass [4]): 98%
inhibition at 280.212 g/ha (Cocklebur [5]): 35%
inhibition at 280.212 g/ha (Common Chickweed [6]): 100%
inhibition at 280.212 g/ha (Corn [7]): 45%
inhibition at 280.212 g/ha (Downy Brome [8]): 10%
inhibition at 280.212 g/ha (Giant Foxtail [9]): 100%
inhibition at 280.212 g/ha (Green Foxtail [10]): 100%
inhibition at 280.212 g/ha (Morning Glory [11]): 55%
inhibition at 280.212 g/ha (Rape [12]): 35%
inhibition at 280.212 g/ha (Seedling Johnsongrass [13]): 99%
inhibition at 280.212 g/ha (Soybean [14]): 5%
inhibition at 280.212 g/ha (Velvetleaf [15]): 80%
inhibition at 280.212 g/ha (Wheat [16]): 0%
inhibition at 280.212 g/ha (Wild Oats [17]): 90%
inhibition at 280.212 g/ha (Barnyardgrass [18]): 85%
inhibition at 280.212 g/ha (Bedstraw Catchweed [19]): 65%
inhibition at 280.212 g/ha (Birdseye Speedwell [20]): 95%
inhibition at 280.212 g/ha (Blackgrass [21]): 40%
inhibition at 280.212 g/ha (Cocklebur [22]): 90%
inhibition at 280.212 g/ha (Common Chickweed [23]): 90%
inhibition at 280.212 g/ha (Corn [24]): 20%
inhibition at 280.212 g/ha (Downy Brome [25]): 50%
inhibition at 280.212 g/ha (Giant Foxtail [26]): 75%
inhibition at 280.212 g/ha (Green Foxtail [27]): 65%
inhibition at 280.212 g/ha (Morning Glory [28]): 90%
inhibition at 280.212 g/ha (Rape [29]): 40%
inhibition at 280.212 g/ha (Seedling Johnsongrass [30]): 85%
inhibition at 280.212 g/ha (Soybean [31]): 60%
inhibition at 280.212 g/ha (Velvetleaf [32]): 100%
inhibition at 280.212 g/ha (Wheat [33]): 16%
inhibition at 280.212 g/ha (Wild Oats [34]): 35%

COCC(C)OC(=O)c1cc(-c2nn(C)c(C(F)(F)F)c2C)c(F)cc1Cl (stereo not drawn) [Compound 52]
inhibition at 280.212 g/ha (Barnyardgrass [1]): 100%
inhibition at 280.212 g/ha (Bedstraw Catchweed [2]): 90%
inhibition at 280.212 g/ha (Birdseye Speedwell [3]): 95%
inhibition at 280.212 g/ha (Blackgrass [4]): 100%
inhibition at 280.212 g/ha (Cocklebur [5]): 65%
inhibition at 280.212 g/ha (Common Chickweed [6]): 95%
inhibition at 280.212 g/ha (Corn [7]): 75%
inhibition at 280.212 g/ha (Downy Brome [8]): 100%
inhibition at 280.212 g/ha (Giant Foxtail [9]): 100%
inhibition at 280.212 g/ha (Green Foxtail [10]): 100%
inhibition at 280.212 g/ha (Morning Glory [11]): 70%
inhibition at 280.212 g/ha (Rape [12]): 60%
inhibition at 280.212 g/ha (Seedling Johnsongrass [13]): 100%
inhibition at 280.212 g/ha (Soybean [14]): 5%
inhibition at 280.212 g/ha (Velvetleaf [15]): 100%
inhibition at 280.212 g/ha (Wheat [16]): 0%
inhibition at 280.212 g/ha (Wild Oats [17]): 85%
inhibition at 280.212 g/ha (Barnyardgrass [18]): 99%
inhibition at 280.212 g/ha (Bedstraw Catchweed [19]): 100%
inhibition at 280.212 g/ha (Birdseye Speedwell [20]): 100%
inhibition at 280.212 g/ha (Blackgrass [21]): 95%
inhibition at 280.212 g/ha (Cocklebur [22]): 100%
inhibition at 280.212 g/ha (Common Chickweed [23]): 100%
inhibition at 280.212 g/ha (Corn [24]): 15%
inhibition at 280.212 g/ha (Downy Brome [25]): 100%
inhibition at 280.212 g/ha (Giant Foxtail [26]): 100%
inhibition at 280.212 g/ha (Green Foxtail [27]): 98%
inhibition at 280.212 g/ha (Morning Glory [28]): 99%
inhibition at 280.212 g/ha (Rape [29]): 100%
inhibition at 280.212 g/ha (Seedling Johnsongrass [30]): 99%
inhibition at 280.212 g/ha (Soybean [31]): 95%
inhibition at 280.212 g/ha (Velvetleaf [32]): 100%
inhibition at 280.212 g/ha (Wheat [33]): 25%
inhibition at 280.212 g/ha (Wild Oats [34]): 95%

CCC(CC)COC(=O)c1cc(-c2nn(C)c(C(F)(F)F)c2C)c(F)cc1Cl [Compound 46]
inhibition at 280.212 g/ha (Barnyardgrass [1]): 0%
inhibition at 280.212 g/ha (Bedstraw Catchweed [2]): 75%
inhibition at 280.212 g/ha (Birdseye Speedwell [3]): 80%
inhibition at 280.212 g/ha (Blackgrass [4]): 10%
inhibition at 280.212 g/ha (Cocklebur [5]): 10%
inhibition at 280.212 g/ha (Common Chickweed [6]): 90%
inhibition at 280.212 g/ha (Corn [7]): 0%
inhibition at 280.212 g/ha (Downy Brome [8]): 15%
inhibition at 280.212 g/ha (Giant Foxtail [9]): 40%
inhibition at 280.212 g/ha (Green Foxtail [10]): 80%
inhibition at 280.212 g/ha (Morning Glory [11]): 20%
inhibition at 280.212 g/ha (Rape [12]): 5%
inhibition at 280.212 g/ha (Seedling Johnsongrass [13]): 75%
inhibition at 280.212 g/ha (Soybean [14]): 0%
inhibition at 280.212 g/ha (Velvetleaf [15]): 80%
inhibition at 280.212 g/ha (Wheat [16]): 0%
inhibition at 280.212 g/ha (Wild Oats [17]): 5%
inhibition at 280.212 g/ha (Barnyardgrass [18]): 50%
inhibition at 280.212 g/ha (Bedstraw Catchweed [19]): 100%
inhibition at 280.212 g/ha (Birdseye Speedwell [20]): 100%
inhibition at 280.212 g/ha (Blackgrass [21]): 20%
inhibition at 280.212 g/ha (Cocklebur [22]): 85%
inhibition at 280.212 g/ha (Common Chickweed [23]): 95%
inhibition at 280.212 g/ha (Corn [24]): 15%
inhibition at 280.212 g/ha (Downy Brome [25]): 15%
inhibition at 280.212 g/ha (Giant Foxtail [26]): 0%
inhibition at 280.212 g/ha (Green Foxtail [27]): 70%
inhibition at 280.212 g/ha (Morning Glory [28]): 70%
inhibition at 280.212 g/ha (Rape [29]): 45%
inhibition at 280.212 g/ha (Seedling Johnsongrass [30]): 25%
inhibition at 280.212 g/ha (Soybean [31]): 15%
inhibition at 280.212 g/ha (Velvetleaf [32]): 98%
inhibition at 280.212 g/ha (Wheat [33]): 15%
inhibition at 280.212 g/ha (Wild Oats [34]): 20%
